Reference: patent publication US7560487B2, “Use of (R)—ibuprofen methanesulfonamide and salts thereof in the treatment and prevention of rejection reactions of transplanted organs” (Dompé Pha.r.ma S.p.A., priority 2001, dated 2009)
Several values for one entry are separate records, joined by “and”; a condition that tells them apart may be missing. Equal values may be shown once.

Key:
IL-8 = settings: in vitro; described in WO 00/24710; cited from earlier work
[1] = test system: rats receiving syngeneic kidney transplant; test: Plasma creatinine after syngeneic kidney transplant (cold ischemia/reperfusion); format: in vivo, Lewis rats; settings: for Plasma Creatinine 16 h: 16 h after transplant; for Plasma Creatinine 16 h / Plasma Creatinine 24 h: 15 mg/kg; for Plasma Creatinine 24 h: 24 h after transplant
Description: (§1) Adult male Lewis rats (RT11) (Charles River, Calco Italia S.p.A, Italy) were used. All animals were allowed free access to food and water. The study was performed in a syngeneic kidney transplant model using such rats as donor and graft recipients. Donor animals were anaesthetized with leptofen. The left kidney was prepared by freeing the ureter from the attachments. The renal artery was separated from the renal vein by dissection. The donor kidney and ureter were removed “en bloc” and flushed with Belzer (UW) containing 1000 U/ml of heparin. Then the kidney was placed in an iced Belzer (UW) solution for 4-6 hours (cold ischemia) until transplant. Recipients were prepared by removal of the left kidney. Animal treatment with DF 1681B is summarized below. Kidney grafts were washed with saline solution before transplant. An anastomosis was created between the recipient and the donor renal artery as well as renal vein with end-to-end anastomosis. Vascular clamps were released after 30 minutes (warm ischemia). Donor and recipient ureters were attached end-to-end. The native right kidney was then removed. Animals were placed in individual metabolic cages for measurements of daily urine output as an index of renal function recovery. After 16 and 24 hours, renal function was assessed by measuring plasma creatinine concentration. Twenty-four hours after kidney transplantation, the animals were sacrificed. The kidney graft was removed, cut in slices and put in Dubosq-Brazil solution for the analysis of conventional histology by light microscopy. Moreover, additional kidney fragments were frozen in liquid nitrogen and used for immunohistochemical analysis of inflammatory cell infiltrate (polymorphonuclear cells, MHC class II positive cells).
(§2) Group 1 (n.=3) rats recipients of a kidney graft exposed to 4 hours cold ischemia and treated with the IL-8 inhibitor DF 1681B.
(§3) Group 2 (n.=3) rats recipients of a kidney graft exposed to 4 hours cold ischemia and treated with the vehicle.
(§4) Group 3 (n.=3) rats recipients of a kidney graft exposed to 6 hours cold ischemia and treated with the IL-8 inhibitor DF 1681B.
(§5) Group 4 (n.=3) rats recipients of a kidney graft exposed to 6 hours cold ischemia and treated with the vehicle.
(§6) The recipients were pretreated the day before the experiment (15 mg/kg s.c.). The animals received an intravenous injection of DF 1681B (15 mg/kg) immediately before reperfusion of the transplanted kidney. Additional administration of the compound (15 mg/kg s.c.) was performed 2 hours after transplantation. Control animals were given vehicle at the same time points and using the same administration method as for animals treated with DF 1681B.
(§7) Data were analyzed using the non-parametric Kruskal-Wallis test for multiple comparisons or the Tukey-Cicchetti test.

[2] = test system: rats receiving syngeneic kidney transplant; test: Immunohistochemical granulocyte count in transplanted kidney, syngeneic transplant; format: in vivo, Lewis rats; set-up: Granulocytes Intravasc.: unit not given here; settings: for Granulocytes Inrterstitial / Granulocytes Intraglom / Granulocytes Intravasc. / Granulocytes Periglom. / Granulocytes Perivasc.: 24 h post-transplant
Description: as §1, §2, §3, §4, §5, §6, §7

[3] = test system: rats receiving syngeneic kidney transplant; test: MHC II positive interstitial cell count in transplanted kidney, syngeneic transplant; format: in vivo, Lewis rats; set-up: MHC II+ interstitial cells: unit not given here
Description: as §1, §2, §3, §4, §5, §6, §7

[4] = test system: rats receiving syngeneic kidney transplant; test: Semi-quantitative histological score for renal damage, syngeneic transplant; format: in vivo, Lewis rats
Description: as §1, §2, §3, §4, §5, §6, §7

[5] = test system: rats receiving allogeneic kidney transplant; test: Plasma creatinine after allogeneic kidney transplant; format: in vivo, Brown Norway rats; settings: for Plasma Creatinine 16 h / Plasma Creatinine 24 h: allogeneic, 6 h cold ischemia
Description: The following experimental group of animals were considered:
Group 1 (n=9) Brown Norway rats recipients of a kidney graft of Lewis rats exposed to 6 hours cold ischemia and treated with vehicle.
Group 2 (n=5) Brown Norway rats recipients of a kidney graft of Lewis rats exposed to 6 hours cold ischemia and treated with the IL-8 inhibitor DF 1681B.
as §6, with “experiment (20” for “experiment (15”, “The animal” for “The animals”, “1681B (20” for “1681B (15”, “compound (20” for “compound (15”
as §7

mouse model = test: Chemotaxis in vivo in a mouse model
[6] = test system: models of ischemia/reperfusion injury; test: PMN infiltration in models of ischemia/reperfusion injury, mice; format: in vivo
[7] = test system: models of ischemia/reperfusion injury; test: PMN infiltration in models of ischemia/reperfusion injury, rats; format: in vivo
[8] = 4 h cold ischemia, group mean ± SD
[9] = 4 h cold ischemia, individual rats, 15 mg/kg s.c./i.v./s.c.
[10] = 6 h cold ischemia, group mean ± SD
[11] = 6 h cold ischemia, individual rats
[12] = 4 h cold ischemia, individual rats, high-power fields (X400)
[13] = 6 h cold ischemia, individual rats, high-power fields (X400)
[14] = 4 h cold ischemia, 24 h after transplantation, individual rats
[15] = 6 h cold ischemia, 24 h after transplantation, individual rats
[16] = individual Brown Norway rats, 20 mg/kg s.c./i.v./s.c.

SMILES: CC(C)Cc1ccc([C@@H](C)C(=O)NS(C)(=O)=O)cc1 [(R)-ibuprofen methanesulfonamide, R(−)-N-[2-(4-Isobutylphenyl)propionyl]-methanesulfonamide]
- Inhibition of the chemotaxis of neutrophils induced by IL-8 (IL-8): selective in vitro inhibitors

SMILES: CC(C)Cc1ccc([C@@H](C)C(=O)NS(C)(=O)=O)cc1.NCCCC[C@H](N)C(=O)O [DF1681B, R(−)-N-[2-(4-Isobutylphenyl)propionyl]-methanesulfonamide salt of L(+)-lysine]
- Plasma Creatinine 16 h [1, 8]: 0.91 ± 0.18° mg/dl
- Plasma Creatinine 16 h [1, 9]: 1.09 mg/dL and 0.74 mg/dL and 0.89 mg/dL
- Plasma Creatinine 24 h [1, 8]: 0.78 ± 0.19° mg/dl
- Plasma Creatinine 24 h [1, 9]: 0.99 mg/dL and 0.64 mg/dL and 0.71 mg/dL
- Renal function (plasma creatinine), effect in words ([1]; 4 h ischemic kidneys): protected animals from renal function deterioration
- Plasma Creatinine 16 h [1, 10]: 2.23 ± 0.36*Δ mg/dl
- Plasma Creatinine 16 h [1, 11]: 2.32 mg/dL and 2.54 mg/dL and 1.84 mg/dL
- Plasma Creatinine 24 h [1, 10]: 1.83 ± 0.09 mg/dL
- Plasma Creatinine 24 h [1, 11]: 1.89 mg/dL and 1.87 mg/dL and 1.72 mg/dL
- Plasma creatinine concentrations, effect in words ([1]; 6 hours ischemia): significantly reduced plasma creatinine concentrations
- Granulocytes Inrterstitial [2, 8]: 12.1 ± 3.7
- Granulocytes Intraglom [2, 8]: 9.5 ± 3.9
- Granulocytes Intravasc. [2, 8]: 3.2 ± 4.3
- Granulocytes Periglom. [2, 8]: 5.4 ± 1.5
- Granulocytes Perivasc. [2, 8]: 5.4 ± 2.5
- Granulocytes Inrterstitial [2, 12]: 9.1 ± 6.4 and 11 ± 4.8 and 16.2 ± 8.3
- Granulocytes Intraglom [2, 12]: 7.4 ± 4.7 and 14 ± 15.4 and 7 ± 2.9
- Granulocytes Intravasc. [2, 12]: 1.5 ± 2.4 and 0 and 8 ± 5.3
- Granulocytes Periglom. [2, 12]: 5.3 ± 4.5 and 4 and 7 ± 8
- Granulocytes Perivasc. [2, 12]: 3 ± 0.8 and 8 ± 2.6 and 5.3 ± 4.6
- Granulocyte count in the intraglomerular area, effect in words ([2]; 4 hour cold ischemia): numerically but not significantly lowered
- PMN infiltrate, effect in words ([2]; 4 hour cold ischemia): decreases the PMN infiltrate
- Granulocytes Inrterstitial [2, 10]: 3 ± 1.7 cells per high-power field
- Granulocytes Intraglom [2, 10]: 5.5 ± 2 cells per high-power field
- Granulocytes Intravasc. [2, 10]: 1.1 ± 1.7
- Granulocytes Periglom. [2, 10]: 2.1 ± 1.1
- Granulocytes Perivasc. [2, 10]: 4.1 ± 2.9
- Granulocytes Inrterstitial [2, 13]: 2.5 ± 4.6 and 4.8 ± 5.6 and 1.6 ± 1.2
- Granulocytes Intraglom [2, 13]: 5.0 ± 6.0 and 3.7 ± 3.0 and 7.7 ± 6.5
- Granulocytes Intravasc. [2, 13]: 0.2 ± 0.4 and 0 and 3.0 ± 4.0
- Granulocytes Periglom. [2, 13]: 1.0 ± 1.8 and 3.2 ± 1.9 and 2.2 ± 1.2
- Granulocytes Perivasc. [2, 13]: 1.0 ± 1.3 and 6.8 ± 8.9 and 4.5 ± 4.4
- Interstitial inflammatory cells, effect in words ([2]; 6 hour ischemia, p<0.01): significantly lowered
- Number of MHC class II cells, effect in words ([3]; 4 and 6 hour ischemia): not affected
- MHC II+ interstitial cells [3, 8]: 8.7 ± 3.4
- MHC II+ interstitial cells ([3]; 4 h cold ischemia, individual rats, high-power fields (×400)): 5.1 ± 6.2 and 9.1 ± 2 and 11.9 ± 6.3
- MHC II+ interstitial cells [3, 10]: 14.4 ± 4.7
- MHC II+ interstitial cells ([3]; 6 h cold ischemia, individual rats, high-power fields (×400)): 10.5 ± 4.7 and 13.1 ± 7 and 19.7 ± 3.3
- Histological damage Glomerular (score) [4, 14]: 0 score
- Histological damage Interstitial (score) [4, 14]: 2.5 score and 2 score (2×)
- Histological damage Tubular (score) [4, 14]: 1.5 score and 0.7 score and 0.5 score
- Histological damage Glomerular (score) [4, 8]: 0 score
- Histological damage Interstitial (score) [4, 8]: 2 ± 0.3 score
- Histological damage Tubular (score) [4, 8]: 0.7 ± 0.6 score
- Tubular changes, effect in words ([4]; 4 hour ischemia): attenuated but did not normalize tubular changes
- Histological damage Glomerular (score) [4, 15]: 0 score
- Histological damage Interstitial (score) [4, 15]: 3 score
- Histological damage Tubular (score) [4, 15]: 1.7 score (2×) and 1.2 score
- Histological damage Glomerular (score) [4, 10]: 0 score
- Histological damage Interstitial (score) [4, 10]: 3 score
- Histological damage Tubular (score) [4, 10]: 1.5 ± 0.3 score
- Focal ischemic changes in the glomeruli, effect in words ([4]; 6 hour ischemia): prevented
- Serum creatinine levels, effect in words ([5]; allogeneic transplant, 20 mg/kg, 16 and 24 hours): significant prevention of increased serum creatinine levels
- Plasma Creatinine 16 h [5, 16]: 1.05 mg/dL and 1.2 mg/dL and 1 mg/dL and 0.84 mg/dL and 1.01 mg/dL
- Plasma Creatinine 24 h [5, 16]: 1.3 mg/dL and 1.39 mg/dL and 0.87 mg/dL and 0.69 mg/dL and 0.85 mg/dL
- Plasma Creatinine 16 h ([5]; group mean, 20 mg/kg): 1.02 mg/dL
- Plasma Creatinine 24 h ([5]; group mean, 20 mg/kg): 1.02 mg/dL
- Inhibition of chemotaxis in vivo (mouse model): inhibit chemotaxis in vivo
- Inhibition of PMN infiltration [6]: inhibit PMN infiltration
- Inhibition of PMN infiltration [7]: inhibit PMN infiltration
- Inhibition of the chemotaxis of neutrophils induced by IL-8 (IL-8): selective in vitro inhibitors
